The nature of this series: Active ingredient release of NVA to pig's skin. Format: in vitro ADME. The conditions noted are these: pig's skin, 2, 4, 6, 8 and 24 hours, FIG. 7. The protocol:
For investigating the release characteristics, specimens on pig's skin are prepared and the release is determined quantitatively after 24 hours.
In order to investigate the release characteristics, samples on pig's skin are prepared and the release is determined quantitatively after 2, 4, 6, 8 and 24 hours. […] From this it is clear that the active ingredient is delivered in a controlled, sustained manner into the skin to develop its activity there.

`CCCCCCCCC(=O)NCc1ccc(O)c(OC)c1` [NVA, Nonivamide]: the “quantity of NVA released in total to epidermis and dermis, course over time” value is “uniform, linear increase”.

The values are drawn from patent US20050100588A1, “Self-adhesive matrix plaster containing an active ingredient and based on polyurethane gels” (Beiersdorf AG, priority 2001, published 2005).
